Test results published in PubChem BioAssay (NCI).
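Test compounds were applied to cells in 96-well plates for 48 hours at 5 doses. At the GI50, growth is halved. The concentration for full growth arrest is given as TGI.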

Experiments:
Test in all cases: growth of human tumour cells (NCI), 48 h
HL-60(TB) leukemia = tested on: HL-60(TB) leukemia
SF-295 CNS = tested on: SF-295 CNS
OVCAR-3 ovarian = tested on: OVCAR-3 ovarian
LOX IMVI melanoma = tested on: LOX IMVI melanoma
UACC-62 melanoma = tested on: UACC-62 melanoma
M14 melanoma = tested on: M14 melanoma
MDA-MB-435 = tested on: MDA-MB-435
HCT-15 colon = tested on: HCT-15 colon
PC-3 prostate = tested on: PC-3 prostate
UO-31 renal = tested on: UO-31 renal
MOLT-4 leukemia = tested on: MOLT-4 leukemia
UACC-257 melanoma = tested on: UACC-257 melanoma
HOP-62 NSCLC = tested on: HOP-62 NSCLC
EKVX NSCLC = tested on: EKVX NSCLC
SR leukemia = tested on: SR leukemia
RXF 393 renal = tested on: RXF 393 renal
K-562 leukemia = tested on: K-562 leukemia
NCI-H522 lung = tested on: NCI-H522 lung
A498 renal = tested on: A498 renal
MCF7 breast = tested on: MCF7 breast
SN12C renal = tested on: SN12C renal
BT-549 breast = tested on: BT-549 breast
A549 NSCLC = tested on: A549 NSCLC
U251 CNS = tested on: U251 CNS
SNB-75 CNS = tested on: SNB-75 CNS
HCC-2998 colon = tested on: HCC-2998 colon
CAKI-1 renal = tested on: CAKI-1 renal
NCI-H460 lung = tested on: NCI-H460 lung
SNB-19 CNS = tested on: SNB-19 CNS
CCRF-CEM leukemia = tested on: CCRF-CEM leukemia
MALME-3M melanoma = tested on: MALME-3M melanoma
NCI-H226 lung = tested on: NCI-H226 lung
HT29 colon = tested on: HT29 colon
MDA-MB-231 breast = tested on: MDA-MB-231 breast
NCI/ADR-RES ovarian = tested on: NCI/ADR-RES ovarian
KM12 colon = tested on: KM12 colon
SK-OV-3 ovarian = tested on: SK-OV-3 ovarian
ACHN renal = tested on: ACHN renal
SK-MEL-5 melanoma = tested on: SK-MEL-5 melanoma
SK-MEL-2 melanoma = tested on: SK-MEL-2 melanoma
HCT-116 colon = tested on: HCT-116 colon
OVCAR-4 ovarian = tested on: OVCAR-4 ovarian
OVCAR-5 ovarian = tested on: OVCAR-5 ovarian
SK-MEL-28 melanoma = tested on: SK-MEL-28 melanoma
T-47D breast = tested on: T-47D breast
HS 578T breast = tested on: HS 578T breast
TK-10 renal = tested on: TK-10 renal
SF-268 CNS = tested on: SF-268 CNS
NCI-H23 lung = tested on: NCI-H23 lung
SF-539 CNS = tested on: SF-539 CNS
786-0 renal = tested on: 786-0 renal
IGROV1 ovarian = tested on: IGROV1 ovarian
SW-620 colon = tested on: SW-620 colon
COLO 205 colon = tested on: COLO 205 colon
OVCAR-8 ovarian = tested on: OVCAR-8 ovarian
RPMI-8226 leukemia = tested on: RPMI-8226 leukemia
DU-145 prostate = tested on: DU-145 prostate

## CC1OC(OC2C(O)CC(OC3C(O)CC(OC4CCC5(C)C(CCC6C5CC(O)C5(C)C(C7=CC(=O)OC7)CCC65O)C4)OC3C)OC2C)CC(O)C1O (stereo not drawn)
HL-60(TB) leukemia
  GI50: 25.3 nM
  TGI: 56.4 nM
SF-295 CNS
  GI50: 31.7 nM
  TGI: 171 nM
OVCAR-3 ovarian
  GI50: 33 nM
  TGI: 113 nM
LOX IMVI melanoma
  GI50: 42.8 nM
  TGI: 164 nM
UACC-62 melanoma
  GI50: 157 nM
  TGI: 333 nM
M14 melanoma
  GI50: 176 nM
  TGI: 349 nM
MDA-MB-435
  GI50: 134 nM
  TGI: 318 nM
HCT-15 colon
  GI50: 113 nM
  TGI: 293 nM
PC-3 prostate
  GI50: 54.3 nM
  TGI: 538 nM
UO-31 renal
  GI50: 37.7 nM
  TGI: 148 nM
MOLT-4 leukemia
  GI50: 25.2 nM
  TGI: 61.9 nM
UACC-257 melanoma
  GI50: 126 nM
  TGI: 256 nM
HOP-62 NSCLC
  GI50: 36 nM
  TGI: 125 nM
EKVX NSCLC
  GI50: 35.1 nM
  TGI: 121 nM
SR leukemia
  GI50: 24.4 nM
  TGI: 89.7 nM
RXF 393 renal
  GI50: 29.3 nM
  TGI: 99.4 nM
K-562 leukemia
  GI50: 31.9 nM
  TGI: 122 nM
NCI-H522 lung
  GI50: 22.5 nM
  TGI: 63.9 nM
A498 renal
  GI50: 107 nM
  TGI: 544 nM
MCF7 breast
  GI50: 43.6 nM
  TGI: 196 nM
SN12C renal
  GI50: 39.1 nM
  TGI: 248 nM
BT-549 breast
  GI50: 30.9 nM
  TGI: 101 nM
A549 NSCLC
  GI50: 18.7 nM
  TGI: 35.6 nM
U251 CNS
  GI50: 51.4 nM
  TGI: 165 nM
SNB-75 CNS
  GI50: 76.5 nM
  TGI: 241 nM
HCC-2998 colon
  GI50: 146 nM
  TGI: 451 nM
CAKI-1 renal
  GI50: 41.6 nM
  TGI: 204 nM
NCI-H460 lung
  GI50: 30.5 nM
  TGI: 88 nM
SNB-19 CNS
  GI50: 113 nM
  TGI: 238 nM
CCRF-CEM leukemia
  GI50: 35.8 nM
  TGI: 245 nM
MALME-3M melanoma
  GI50: 37.3 nM
  TGI: 160 nM
NCI-H226 lung
  GI50: 137 nM
  TGI: 266 nM
HT29 colon
  GI50: 41.7 nM
  TGI: 154 nM
MDA-MB-231 breast
  GI50: 205 nM
  TGI: 616 nM
NCI/ADR-RES ovarian
  GI50: 38.5 nM
  TGI: 145 nM
KM12 colon
  GI50: 82.4 nM
  TGI: 280 nM
SK-OV-3 ovarian
  GI50: 51.3 nM
  TGI: 171 nM
ACHN renal
  GI50: 35.8 nM
  TGI: 126 nM
SK-MEL-5 melanoma
  GI50: 37.1 nM
  TGI: 129 nM
SK-MEL-2 melanoma
  GI50: 128 nM
  TGI: 346 nM
HCT-116 colon
  GI50: 33.1 nM
  TGI: 115 nM
OVCAR-4 ovarian
  GI50: 34.7 nM
  TGI: 139 nM
OVCAR-5 ovarian
  GI50: 137 nM
  TGI: 295 nM
SK-MEL-28 melanoma
  GI50: 152 nM
  TGI: 302 nM
T-47D breast
  GI50: 53.8 nM
  TGI: 292 nM
HS 578T breast
  GI50: 42 nM
  TGI: 2300 nM
TK-10 renal
  GI50: 29.5 nM
  TGI: 87 nM
SF-268 CNS
  GI50: 35.9 nM
  TGI: 133 nM
NCI-H23 lung
  GI50: 23.5 nM
  TGI: 66.2 nM
SF-539 CNS
  GI50: 42.7 nM
  TGI: 150 nM
786-0 renal
  GI50: 41 nM
  TGI: 162 nM
IGROV1 ovarian
  GI50: 127 nM
  TGI: 1110 nM
SW-620 colon
  GI50: 42.3 nM
  TGI: 165 nM
COLO 205 colon
  GI50: 131 nM
  TGI: 272 nM
OVCAR-8 ovarian
  GI50: 56.6 nM
  TGI: 196 nM
RPMI-8226 leukemia
  GI50: 92.1 nM
DU-145 prostate
  GI50: 30.8 nM
  TGI: 90.3 nM
